Test results taken from PubChem BioAssay AID248 (DTP/NCI, 2004).
“And” between values parts separate entries of the source, which are not always exact repeats. Identical values can stand only once. Inconclusive results and toxic doses are left out.

Tested on: L1210 leukemia ip in BDF1 mice, survival T/C
Assay: NCI In Vivo Anticancer Drug Screen. Data for tumor model L1210 Leukemia (intraperitoneal) in B6D2F1 (BDF1) mice
Conditions: endpoint: mean survival time, higher = longer survival
Procedure, shortened: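 Tumor was transplanted into mice, which were then dosed with test compound or vehicle alone. Survival was recorded for each group, and the treated figure was expressed relative to the control figure.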

[1] = dose: 200.0 mg/kg/injection, schedule: Q01DX001 (ip), vehicle: carboxymethylcellulose (CMC)
[2] = dose: 100.0 mg/kg/injection, schedule: Q01DX009 (ip), vehicle: saline with Tween-80
[3] = dose: 100.0 mg/kg/injection, schedule: Q04DX002 (ip), vehicle: saline with Tween-80
[4] = dose: 100.0 mg/kg/injection, schedule: Q04DX003 (ip), vehicle: saline with Tween-80
[5] = dose: 200.0 mg/kg/injection, schedule: Q01DX009 (ip), vehicle: saline with Tween-80
[6] = dose: 200.0 mg/kg/injection, schedule: Q04DX002 (ip), vehicle: saline with Tween-80
[7] = dose: 200.0 mg/kg/injection, schedule: Q04DX003 (ip), vehicle: saline with Tween-80
[8] = dose: 400.0 mg/kg/injection, schedule: Q01DX009 (ip), vehicle: saline with Tween-80
[9] = dose: 400.0 mg/kg/injection, schedule: Q04DX002 (ip), vehicle: saline with Tween-80
[10] = dose: 400.0 mg/kg/injection, schedule: Q04DX003 (ip), vehicle: saline with Tween-80
[11] = dose: 50.0 mg/kg/injection, schedule: Q01DX001 (ip), vehicle: saline
[12] = dose: 100.0 mg/kg/injection, schedule: Q01DX001 (ip), vehicle: saline
[13] = dose: 200.0 mg/kg/injection, schedule: Q01DX001 (ip), vehicle: saline
[14] = dose: 400.0 mg/kg/injection, schedule: Q01DX001 (ip), vehicle: saline
[15] = dose: 50.0 mg/kg/injection, schedule: Q04DX002 (ip), vehicle: saline
[16] = dose: 100.0 mg/kg/injection, schedule: Q01DX009 (ip), vehicle: Klucel (hydroxypropylcellulose) (HPC)
[17] = dose: 200.0 mg/kg/injection, schedule: Q01DX009 (ip), vehicle: Klucel (hydroxypropylcellulose) (HPC)
[18] = dose: 100.0 mg/kg/injection, schedule: Q01DX009 (ip), vehicle: saline
[19] = dose: 100.0 mg/kg/injection, schedule: Q04DX002 (ip), vehicle: saline
[20] = dose: 100.0 mg/kg/injection, schedule: Q04DX003 (ip), vehicle: saline
[21] = dose: 200.0 mg/kg/injection, schedule: Q01DX009 (ip), vehicle: saline
[22] = dose: 200.0 mg/kg/injection, schedule: Q04DX002 (ip), vehicle: saline
[23] = dose: 200.0 mg/kg/injection, schedule: Q04DX003 (ip), vehicle: saline
[24] = dose: 400.0 mg/kg/injection, schedule: Q01DX009 (ip), vehicle: saline
[25] = dose: 100.0 mg/kg/injection, schedule: Q04DX002 (ip), vehicle: Klucel (hydroxypropylcellulose) (HPC)
[26] = dose: 200.0 mg/kg/injection, schedule: Q04DX002 (ip), vehicle: Klucel (hydroxypropylcellulose) (HPC)
[27] = dose: 400.0 mg/kg/injection, schedule: Q04DX002 (ip), vehicle: Klucel (hydroxypropylcellulose) (HPC)

CN(C)c1ccc2c(c1)Cc1cc(NC(N)=O)ccc1-2
T/C (dose: 100.0 mg/kg/injection, schedule: Q01DX001 (ip), vehicle: carboxymethylcellulose (CMC)): 115 % of control | T/C [1]: 96 % of control | T/C (dose: 400.0 mg/kg/injection, schedule: Q01DX001 (ip), vehicle: carboxymethylcellulose (CMC)): 91 % of control

CSc1ccc(NC(=O)OCCOc2ccccc2)cc1
T/C (dose: 100.0 mg/kg/injection, schedule: Q01DX001 (ip), vehicle: saline with Tween-80): 94 % of control | T/C [2]: 96 % of control and 89 % of control | T/C [3]: 99 % of control | T/C [4]: 100 % of control | T/C (dose: 200.0 mg/kg/injection, schedule: Q01DX001 (ip), vehicle: saline with Tween-80): 94 % of control | T/C [5]: 97 % of control and 89 % of control | T/C [6]: 108 % of control | T/C [7]: 102 % of control | T/C (dose: 400.0 mg/kg/injection, schedule: Q01DX001 (ip), vehicle: saline with Tween-80): 110 % of control | T/C [8]: 94 % of control and 107 % of control | T/C [9]: 89 % of control | T/C [10]: 102 % of control

CCCCCCCCN1CCC(c2cccc(O)c2)C(C(=O)CC)C1 (stereo not given)
T/C (dose: 6.0 mg/kg/injection, schedule: Q01DX009 (ip), vehicle: Klucel (hydroxypropylcellulose) (HPC)): 94 % of control and 102 % of control | T/C (dose: 12.0 mg/kg/injection, schedule: Q01DX009 (ip), vehicle: Klucel (hydroxypropylcellulose) (HPC)): 94 % of control | T/C (dose: 50.0 mg/kg/injection, schedule: Q01DX009 (ip), vehicle: Klucel (hydroxypropylcellulose) (HPC)): 87 % of control

COc1ccc(Cc2ccc(OC)cc2)cc1
T/C [11]: 96 % of control | T/C [12]: 96 % of control | T/C [13]: 96 % of control | T/C [14]: 90 % of control

CC[N+](C)(C)CCCNC(=O)C12CC3CC(CC(C3)C1)C2
T/C (dose: 25.0 mg/kg/injection, schedule: Q04DX002 (ip), vehicle: saline): 99 % of control | T/C [15]: 96 % of control

CC(=O)OC(C)(C)/C=C/C(=O)[C@](C)(O)[C@H]1[C@H](O)C[C@@]2(C)[C@@H]3CC=C4[C@@H](CC[C@H](O)C4(C)C)[C@]3(CO)C(=O)C[C@]12C
T/C (dose: 0.57 mg/kg/injection, schedule: Q01DX Z (ip), vehicle: saline): 106 % of control | T/C (dose: 0.86 mg/kg/injection, schedule: Q01DX Z (ip), vehicle: saline): 106 % of control | T/C (dose: 1.3 mg/kg/injection, schedule: Q01DX Z (ip), vehicle: saline): 112 % of control

CC(=O)Nc1ccc(NC(=O)NC(C)(C)C)cc1
T/C [16]: 97 % of control | T/C [17]: 96 % of control | T/C (dose: 400.0 mg/kg/injection, schedule: Q01DX009 (ip), vehicle: Klucel (hydroxypropylcellulose) (HPC)): 96 % of control

C[n+]1ccc(C=O)cc1
T/C [11]: 102 % of control | T/C (dose: 50.0 mg/kg/injection, schedule: Q01DX009 (ip), vehicle: saline): 104 % of control and 109 % of control | T/C (dose: 50.0 mg/kg/injection, schedule: Q04DX003 (ip), vehicle: saline): 103 % of control | T/C [12]: 105 % of control | T/C [18]: 102 % of control and 117 % of control | T/C [19]: 94 % of control and 107 % of control | T/C [20]: 101 % of control | T/C [13]: 105 % of control | T/C [21]: 106 % of control and 120 % of control | T/C [22]: 102 % of control and 104 % of control | T/C [23]: 94 % of control | T/C (dose: 400.0 mg/kg/injection, schedule: Q04DX002 (ip), vehicle: saline): 98 % of control and 100 % of control

CSc1ncnc2c1ncn2N(CC1CO1)C(C)=O (stereo not given)
T/C [3]: 91 % of control | T/C [6]: 91 % of control | T/C [9]: 95 % of control

Cn1nc(C(N)=O)c(C#N)c1N
T/C [15]: 103 % of control | T/C [19]: 92 % of control | T/C [22]: 95 % of control

CCCCCCCCCCCCCCCC(=O)CCCCCCCCCCCCCCC
T/C (dose: 100.0 mg/kg/injection, schedule: Q01DX001 (ip), vehicle: other): 94 % of control | T/C (dose: 200.0 mg/kg/injection, schedule: Q01DX001 (ip), vehicle: other): 100 % of control | T/C (dose: 400.0 mg/kg/injection, schedule: Q01DX001 (ip), vehicle: other): 97 % of control

NC(=S)N/N=C(\c1ccc(Cl)cc1)C1CC1
T/C (dose: 3.0 mg/kg/injection, schedule: Q01DX Z (ip), vehicle: carboxymethylcellulose (CMC)): 96 % of control | T/C (dose: 7.0 mg/kg/injection, schedule: Q01DX Z (ip), vehicle: carboxymethylcellulose (CMC)): 96 % of control | T/C (dose: 7.0 mg/kg/injection, schedule: Q01DX Z (sc), vehicle: carboxymethylcellulose (CMC)): 121 % of control | T/C (dose: 15.0 mg/kg/injection, schedule: Q01DX Z (ip), vehicle: carboxymethylcellulose (CMC)): 97 % of control | T/C (dose: 15.0 mg/kg/injection, schedule: Q01DX Z (sc), vehicle: carboxymethylcellulose (CMC)): 120 % of control

O=[N+]([O-])c1ccc2ncsc2c1
T/C [2]: 98 % of control | T/C [4]: 112 % of control | T/C [5]: 98 % of control | T/C [7]: 102 % of control | T/C [8]: 98 % of control | T/C [10]: 104 % of control

COc1ccc(C(C#N)CC(=O)c2ccc3c(c2)OCO3)cc1OC (stereo not given)
T/C [18]: 104 % of control | T/C [20]: 98 % of control | T/C [21]: 104 % of control | T/C [23]: 104 % of control | T/C [24]: 97 % of control | T/C (dose: 400.0 mg/kg/injection, schedule: Q04DX003 (ip), vehicle: saline): 98 % of control

CC(=O)OC1CCCOC1OC(C)=O (stereo not given)
T/C [12]: 99 % of control | T/C [18]: 106 % of control | T/C [13]: 100 % of control | T/C [21]: 100 % of control | T/C [14]: 94 % of control | T/C [24]: 95 % of control

N#CCCN(C(=O)Nc1cc(C(F)(F)F)ccc1Cl)C1CCCCC1
T/C [25]: 96 % of control | T/C [26]: 96 % of control | T/C [27]: 105 % of control

CC(=O)Oc1cc2c3c(c1)CCCN3CCC2
T/C (dose: 1.25 mg/kg/injection, schedule: Q01DX009 (ip), vehicle: saline): 101 % of control | T/C (dose: 2.5 mg/kg/injection, schedule: Q01DX009 (ip), vehicle: saline): 106 % of control | T/C (dose: 5.0 mg/kg/injection, schedule: Q01DX009 (ip), vehicle: saline): 98 % of control

O=C(Nc1ccc(C2=NCCN2)cc1)c1ccc(CNc2ccc(C3=NCCN3)cc2)cc1
T/C (dose: 0.5 mg/kg/injection, schedule: Q01DX Z (ip), vehicle: water): 93 % of control | T/C (dose: 1.0 mg/kg/injection, schedule: Q01DX Z (ip), vehicle: water): 96 % of control | T/C (dose: 2.0 mg/kg/injection, schedule: Q01DX Z (ip), vehicle: water): 113 % of control | T/C (dose: 4.0 mg/kg/injection, schedule: Q01DX Z (ip), vehicle: water): 111 % of control | T/C (dose: 6.25 mg/kg/injection, schedule: Q01DX Z (ip), vehicle: water): 159 % of control | T/C (dose: 12.5 mg/kg/injection, schedule: Q01DX Z (ip), vehicle: water): 276 % of control | T/C (dose: 25.0 mg/kg/injection, schedule: Q01DX Z (ip), vehicle: water): 188 % of control

NC(=O)Nc1ccc(SCC(=O)O)cc1
T/C [25]: 106 % of control | T/C [26]: 95 % of control | T/C [27]: 113 % of control

CCCCOC(c1ccccc1)N1CCCCC1 (stereo not given)
T/C [1]: 95 % of control

O=C(O)CCN1C(=O)c2ccccc2C1=O
T/C [2]: 96 % of control | T/C [5]: 95 % of control | T/C [8]: 102 % of control

O=C(CS)OCCOC(=O)CS
T/C (dose: 50.0 mg/kg/injection, schedule: Q04DX003 (ip), vehicle: Klucel (hydroxypropylcellulose) (HPC)): 105 % of control | T/C [16]: 92 % of control | T/C (dose: 100.0 mg/kg/injection, schedule: Q04DX003 (ip), vehicle: Klucel (hydroxypropylcellulose) (HPC)): 101 % of control | T/C [17]: 87 % of control | T/C (dose: 200.0 mg/kg/injection, schedule: Q04DX003 (ip), vehicle: Klucel (hydroxypropylcellulose) (HPC)): 106 % of control | T/C (dose: 400.0 mg/kg/injection, schedule: Q04DX003 (ip), vehicle: Klucel (hydroxypropylcellulose) (HPC)): 86 % of control
